Target: T1, full length AKT E17K (Homo sapiens, UniProt P31749, E17K)
T1 construct: host or cells: HEK-293 (ATCC CRL-1573)
Assay: NanoBRET Target Engagement (TE) Assay
Format: cell-based
Conditions: competitive tracer displacement in living cells, read-out: AKT1 E17K IC50
Outline: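 Compound and tracer incubated 2 h before luminescence at donor 450 nm and acceptor 600 nm, with extracellular signal inhibited. EC50 by sigmoidal variable-slope regression.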

T1 sequence (P31749 whole entry E17K): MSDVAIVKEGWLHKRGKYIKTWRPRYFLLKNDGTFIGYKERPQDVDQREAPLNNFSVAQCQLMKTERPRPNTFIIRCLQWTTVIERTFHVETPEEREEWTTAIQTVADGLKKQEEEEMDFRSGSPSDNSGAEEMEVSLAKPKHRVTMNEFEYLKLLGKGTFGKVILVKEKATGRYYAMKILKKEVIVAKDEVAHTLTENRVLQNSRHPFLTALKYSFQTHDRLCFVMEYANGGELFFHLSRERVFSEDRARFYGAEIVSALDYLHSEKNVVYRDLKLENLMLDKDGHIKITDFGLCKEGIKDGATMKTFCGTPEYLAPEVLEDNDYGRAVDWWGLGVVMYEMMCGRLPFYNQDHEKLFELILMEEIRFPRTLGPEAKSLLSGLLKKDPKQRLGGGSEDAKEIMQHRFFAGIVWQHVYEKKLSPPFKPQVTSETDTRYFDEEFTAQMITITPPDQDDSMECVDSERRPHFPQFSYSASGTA

Structure (SMILES) | IC50 [nM]
N#Cc1nc(C(=O)N2CCN(Cc3ccc(-n4c(-c5cccnc5N)nc5ccc(-c6ccccc6)nc54)cc3)CC2)cs1 [Example 247, 4-(4-(4-(2-(2-Aminopyridin-3-yl)-5-phenyl-3H-imidazo[4,5-b]pyridin-3-yl)benzyl)piperazine-1-carbonyl)thiazole-2-carbonitrile] | < 15
N#Cc1ncnc(NC2CC3(CCN(Cc4ccc(-n5c(-c6cccnc6N)nc6ccc(-c7ccccc7)nc65)cc4)CC3)C2)n1 [Example 248, 4-((7-(4-(2-(2-aminopyridin-3-yl)-5-phenyl-3H-imidazo[4,5-b]pyridin-3-yl)benzyl)-7-azaspiro[3.5]nonan-2-yl)amino)-1,3,5-triazine-2-carbonitrile] | < 15
N#Cc1ncnc(N2CC3(CCN(Cc4ccc(-n5c(-c6cccnc6N)nc6ccc(-c7ccccc7)nc65)cc4)CC3)C2)n1 [Example 249, 4-(7-(4-(2-(2-aminopyridin-3-yl)-5-phenyl-3H-imidazo[4,5-b]pyridin-3-yl)benzyl)-2,7-diazaspiro[3.5]nonan-2-yl)-1,3,5-triazine-2-carbonitrile] | 15 to 60
N#Cc1ncnc(N2CCCN(Cc3ccc(-n4c(-c5cccnc5N)nc5ccc(-c6ccccc6)nc54)cc3)CC2)n1 [Example 250, 4-(4-(4-(2-(2-Aminopyridin-3-yl)-5-phenyl-3H-imidazo[4,5-b]pyridin-3-yl)benzyl)-1,4-diazepan-1-yl)-1,3,5-triazine-2-carbonitrile] | 15 to 60
N#Cc1ncnc(N2CCC3(CCN(Cc4ccc(-n5c(-c6cccnc6N)nc6ccc(-c7ccccc7)nc65)cc4)C3)C2)n1 (stereo not shown) [Example 251, 4-(7-(4-(2-(2-aminopyridin-3-yl)-5-phenyl-3H-imidazo[4,5-b]pyridin-3-yl)benzyl)-2,7-diazaspiro[4.4]nonan-2-yl)-1,3,5-triazine-2-carbonitrile] | < 15
N#Cc1ncnc(N2CCC3(CCN(Cc4ccc(-n5c(-c6cccnc6N)nc6ccc(-c7ccccc7)nc65)cc4)C3)CC2)n1 [Example 252, 4-(2-(4-(2-(2-Aminopyridin-3-yl)-5-phenyl-3H-imidazo[4,5-b]pyridin-3-yl)benzyl)-2,8-diazaspiro[4.5]decan-8-yl)-1,3,5-triazine-2-carbonitrile] | 15 to 60
N#Cc1ncnc(N2CCCC3(CCN(Cc4ccc(-n5c(-c6cccnc6N)nc6ccc(-c7ccccc7)nc65)cc4)C3)C2)n1 (stereo not shown) [Example 253, 4-(2-(4-(2-(2-Aminopyridin-3-yl)-5-phenyl-3H-imidazo[4,5-b]pyridin-3-yl)benzyl)-2,7-diazaspiro[4.5]decan-7-yl)-1,3,5-triazine-2-carbonitrile] | 15 to 60
N#Cc1ncnc(N2CCCC3(CCN(Cc4ccc(-n5c(-c6cccnc6N)nc6ccc(-c7ccccc7)nc65)cc4)CC3)C2)n1 [Example 254, 4-(9-(4-(2-(2-Aminopyridin-3-yl)-5-phenyl-3H-imidazo[4,5-b]pyridin-3-yl)benzyl)-2,9-diazaspiro[5.5]undecan-2-yl)-1,3,5-triazine-2-carbonitrile] | < 15
N#Cc1ncnc(N2CC[C@@]3(CCN(Cc4ccc(-n5c(-c6cccnc6N)nc6ccc(-c7ccccc7)nc65)cc4)C3)C2)n1 [Example 255, (R)-4-(7-(4-(2-(2-aminopyridin-3-yl)-5-phenyl-3H-imidazo[4,5-b]pyridin-3-yl)benzyl)-2,7-diazaspiro[4.4]nonan-2-yl)-1,3,5-triazine-2-carbonitrile] | < 15
C[C@@H]1CN(Cc2ccc(-n3c(-c4cccnc4N)nc4ccc(-c5ccccc5)nc43)cc2)C[C@@H](C)N1c1ncnc(C#N)n1 [Example 256, 4-((2R,6R)-4-(4-(2-(2-Aminopyridin-3-yl)-5-phenyl-3H-imidazo[4,5-b]pyridin-3-yl)benzyl)-2,6-dimethylpiperazin-1-yl)-1,3,5-triazine-2-carbonitrile] | 15 to 60
N#Cc1ncnc(N2CC3CCC2CN3Cc2ccc(-n3c(-c4cccnc4N)nc4ccc(-c5ccccc5)nc43)cc2)n1 (stereo not shown) [Example 257, 4-(5-(4-(2-(2-Aminopyridin-3-yl)-5-phenyl-3H-imidazo[4,5-b]pyridin-3-yl)benzyl)-2,5-diazabicyclo[2.2.2]octan-2-yl)-1,3,5-triazine-2-carbonitrile] | 15 to 60
N#Cc1nccc(N2CCN(Cc3ccc(-n4c(-c5cccnc5N)nc5ccc(C6CC6)nc54)cc3)CC2)n1 [Example 258, 4-(4-(4-(2-(2-Aminopyridin-3-yl)-5-cyclopropyl-3H-imidazo[4,5-b]pyridin-3-yl)benzyl)piperazin-1-yl)pyrimidine-2-carbonitrile] | < 15
N#Cc1nccc(N2CCN(Cc3ccc(-n4c(-c5cccnc5N)nc5ccc(-c6ccc[nH]c6=O)nc54)cc3)CC2)n1 [Example 259, 4-(4-(4-(2-(2-Aminopyridin-3-yl)-5-(2-oxo-1,2-dihydropyridin-3-yl)-3H-imidazo[4,5-b]pyridin-3-yl)benzyl)piperazin-1-yl)pyrimidine-2-carbonitrile] | < 15
Cn1cccc(-c2ccc3nc(-c4cccnc4N)n(-c4ccc(CN5CCN(c6ccnc(C#N)n6)CC5)cc4)c3n2)c1=O [Example 260, 4-(4-(4-(2-(2-aminopyridin-3-yl)-5-(1-methyl-2-oxo-1,2-dihydropyridin-3-yl)-3H-imidazo[4,5-b]pyridin-3-yl)benzyl)piperazin-1-yl)pyrimidine-2-carbonitrile] | 15 to 60
Cn1cccc(-c2ccc3nc(-c4cccnc4N)n(-c4ccc(CN5CCC(Nc6ccnc(C#N)n6)CC5)cc4)c3n2)c1=O [Example 261, 4-((1-(4-(2-(2-Aminopyridin-3-yl)-5-(1-methyl-2-oxo-1,2-dihydropyridin-3-yl)-3H-imidazo[4,5-b]pyridin-3-yl)benzyl)piperidin-4-yl)amino)pyrimidine-2-carbonitrile] | < 15
N#Cc1nccc(NC2CCN(Cc3ccc(-n4c(-c5cccnc5N)nc5ccc(C6CCC6)nc54)cc3)CC2)n1 [Example 262, 4-((1-(4-(2-(2-aminopyridin-3-yl)-5-cyclobutyl-3H-imidazo[4,5-b]pyridin-3-yl)benzyl)piperidin-4-yl)amino)pyrimidine-2-carbonitrile] | < 15
N#Cc1nccc(NC2CCN(Cc3ccc(-n4c(-c5cccnc5N)nc5ccc(C6=CCCCC6)nc54)cc3)CC2)n1 [Example 263, 4-((1-(4-(2-(2-Aminopyridin-3-yl)-5-(cyclohex-1-en-1-yl)-3H-imidazo[4,5-b]pyridin-3-yl)benzyl)piperidin-4-yl)amino)pyrimidine-2-carbonitrile] | 15 to 60
N#Cc1nccc(NC2CCN(Cc3ccc(-n4c(-c5cccnc5N)nc5ccc(C6CCCCC6)nc54)cc3)CC2)n1 [Example 264, 4-((1-(4-(2-(2-Aminopyridin-3-yl)-5-cyclohexyl-3H-imidazo[4,5-b]pyridin-3-yl)benzyl)piperidin-4-yl)amino)pyrimidine-2-carbonitrile] | < 15
N#Cc1cccc(-c2ccc3nc(-c4cccnc4N)n(-c4ccc(CN5CCC(Nc6ccnc(C#N)n6)CC5)cc4)c3n2)c1 [Example 265, 4-((1-(4-(2-(2-Aminopyridin-3-yl)-5-(3-cyanophenyl)-3H-imidazo[4,5-b]pyridin-3-yl)benzyl)piperidin-4-yl)amino)pyrimidine-2-carbonitrile] | < 15

Reference: patent publication US12209087B2, “AKT1 modulators” (Alterome Therapeutics, Inc., priority 2022, dated 2025)
